Values after ≈ are worked out from the molar mass of the structure shown. Where two headings read alike, the source gives them in different places.
Tests used:
[1] = tested on: C. albicans CAF2-1 strain; assay: Anti-Candida activity, MIC measurement; format: cell-based; conditions: CAF21STRAIN, read-out: Anti-Candida Activity (minimum inhibitory concentration, MIC)
Experimental: (§1) For the C. albicans CAF2-1 strain, a fungal suspension from a standing culture for 48 hours at 30° C. in a Sabouraud dextrose liquid culture medium (SDB) was diluted with RPMI1640 medium to adjust a fungal suspension of 1.2×10^3 cells/mL. For the A. fumigatus Tsukuba strain, −80° C. stored strain was diluted with RPMI1640 medium to adjust to a fungal suspension of 4.5×10^3 cells/mL.
(§2) Using a U-bottomed 96 well plate, 8 samples/plate (A to H) of sample dilution solutions were prepared. On the 2nd to 12th rows were dispensed 10 μL of dimethyl sulfoxide solution. Weighted sample was dissolved in dimethyl sulfoxide to prepare a 2.5 mg/mL solution, 20 μL of this solution was added to the first row of the prepared plate, and 12 steps of two-fold step dilutions (10 μL of solution+10 μL of dimethyl sulfoxide solution) were performed on the plate. This sample dilution solution was dispensed in the amount of 1 μL to a flat-bottomed 96 well plate for MIC measurement to prepare a sample dilution plate.
(§3) The fungal suspension prepared in (1) was used in the amount of 99 μL/well to inoculate the flat-bottomed 96 well plate containing 1 μL/well of the test compound dilution prepared in (2), and a standing culture was carried out aerobically for 42-48 hours at 35° C.

[2] = tested on: A. fumigatus Tsukuba strain; assay: Anti-Aspergillus activity, MIC measurement; format: cell-based; conditions: RPMI1640, 42-48 hours at 35° C., visual inspection, read-out: Anti-Aspergillus Activity (minimum inhibitory concentration, MIC)
Experimental: as §1, §2, §3

[3] = C. albicans CAF2-1, RPMI1640, 42-48 hours at 35° C., visual inspection

SMILES	MIC [1, 3]	MIC [2]	MIC [1]
Cc1cc(COc2ccc(Cc3cc(-c4cccnc4N)on3)cc2)ccn1 [Example 47, 3-(3-(4-(2-Methyl-pyridin-4-ylmethoxy)-benzyl)-isoxazol-5-yl)-pyridin-2-ylamine]	0.2 µg/mL (≈ 0.537 µM)	0.39 µg/mL (≈ 1.05 µM)	
Nc1ccc(-c2cnn(Cc3ccc(Oc4ccccc4)nc3)c2)c(N)n1 [Example 200, 3-(1-(6-Phenoxy-pyridin-3-ylmethyl)-1H-pyrazol-4-yl)-pyridin-2,6-diamine]	3.13 µg/mL (≈ 8.73 µM)	3.13 µg/mL (≈ 8.73 µM)	
Nc1ncccc1-c1cc(Cc2ccc(OCc3cccc(F)c3)cc2)no1 [Example 6, 3-(3-(4-(3-Fluoro-benzyloxy)-benzyl)-isoxazol-5-yl)-pyridin-2-ylamine]	0.39 µg/mL (≈ 1.04 µM)	0.39 µg/mL (≈ 1.04 µM)	
Nc1ncccc1-c1cc(Cc2cccc(-c3ccccn3)c2)no1 [Example 84, 3-(3-(3-Pyridin-2-yl-benzyl)-isoxazol-5-yl)-pyridin-2-ylamine]	3.13 µg/mL (≈ 9.53 µM)	> 25 µg/mL	
Nc1ccc(-c2cc(Cc3ccc(COc4ccccn4)cc3F)no2)c(N)n1 [Example 211, 3-(3-(2-Fluoro-4-(pyridin-2-yloxymethyl)-benzyl)-isoxazol-5-yl)-pyridin-2,6-diamine]	0.39 µg/mL (≈ 0.996 µM)	0.39 µg/mL (≈ 0.996 µM)	
CCCCOc1cccc(Cc2cc(-c3ccc(N)nc3N)on2)c1 [Example 124, 3-(3-(3-Butoxy-benzyl)-isoxazol-5-yl)-pyridin-2,6-diamine]	0.2 µg/mL (≈ 0.591 µM)	0.39 µg/mL (≈ 1.15 µM)	
Nc1ccc(-c2cc(Cc3ccc(Oc4ccccc4F)nc3)no2)c(N)n1 [Example 134, 3-(3-(6-(2-Fluoro-phenoxy)-pyridin-3-ylmethyl)-isoxazol-5-yl)-pyridin-2,6-diamine]	0.39 µg/mL (≈ 1.03 µM)	0.78 µg/mL (≈ 2.07 µM)	
Nc1ccc(-c2cc(Cc3ccc(Br)cc3)no2)c(N)n1 [Example 220, 3-(3-(4-Bromo-benzyl)-isoxazol-5-yl)-pyridine-2,6-diamine]	6.25 µg/mL (≈ 18.1 µM)	6.25 µg/mL (≈ 18.1 µM)	
Nc1ccc(-c2cc(Cc3ccc(OCc4ccc(Cl)cn4)cc3)no2)c(N)n1 [Example 122, 3-(3-(4-(5-Chloro-pyridin-2-ylmethoxy)-benzyl)-isoxazol-5-yl)-pyridin-2,6-diamine]	1.56 µg/mL (≈ 3.82 µM)	0.78 µg/mL (≈ 1.91 µM)	
Nc1ncccc1-c1cc(Cc2ccc(Oc3ccc(F)cc3)s2)no1 [Example 91, 3-(3-(5-(4-Fluoro-phenoxy)-thiophen-2-ylmethyl)-isoxazol-5-yl)-pyridin-2-ylamine]	0.2 µg/mL (≈ 0.544 µM)	0.1 µg/mL (≈ 0.272 µM)	
Nc1ncccc1-c1cc(Cc2ccn(Cc3ccccc3)c2)no1 [Example 57, 3-(3-(1-Benzyl-1H-pyrrol-3-ylmethyl)-isoxazol-5-yl)-pyridin-2-ylamine]	0.05 µg/mL (≈ 0.151 µM)	0.2 µg/mL (≈ 0.605 µM)	
Cc1ccc(Cc2ccc(Cc3cc(-c4ccc(N)nc4N)on3)s2)cc1 [Example 156, 3-(3-(5-(4-Methyl-benzyl)-thiophen-2-ylmethyl)-isoxazol-5-yl)-pyridin-2,6-diamine]	0.2 µg/mL (≈ 0.531 µM)	0.2 µg/mL (≈ 0.531 µM)	
Nc1ncccc1-c1cc(Cc2ccc(OCc3ccccn3)cc2F)no1 [Example 95, 3-(3-(2-Fluoro-4-(pyridin-2-ylmethoxy)-benzyl)-isoxazol-5-yl)-pyridin-2-ylamine]	0.39 µg/mL (≈ 1.04 µM)	1.56 µg/mL (≈ 4.14 µM)	
Nc1ccc(-c2cc(Cc3ccc(Oc4ccccc4F)cc3)no2)c(N)n1 [Example 144, 3-(3-(4-(2-Fluoro-phenoxy)-benzyl)-isoxazol-5-yl)-pyridin-2,6-diamine]	0.39 µg/mL (≈ 1.04 µM)	0.2 µg/mL (≈ 0.531 µM)	
Nc1ncccc1-c1cc(Cc2ccc(Oc3cccc(F)c3)nc2)no1 [Example 71, 3-(3-(6-(3-Fluoro-phenoxy)-pyridin-3-ylmethyl)-isoxazol-5-yl)-pyridin-2-ylamine]	0.2 µg/mL (≈ 0.552 µM)	0.39 µg/mL (≈ 1.08 µM)	
C#CCOCc1ccc(Cn2cc(-c3cccnc3N)cn2)cc1 [Example 194, 3-(1-(4-Prop-2-ynyloxymethyl-benzyl)-1H-pyrazol-4-yl)-pyridin-2-ylamine]	1.56 µg/mL (≈ 4.9 µM)	3.13 µg/mL (≈ 9.83 µM)	
Nc1ccc(-c2cc(Cc3ccc(Oc4ccc(F)cc4)nc3)no2)cn1 [Example 186, 5-(3-(6-(4-Fluoro-phenoxy)-pyridin-3-ylmethyl)-isoxazol-5-yl)-pyridin-2-ylamine]	3.13 µg/mL (≈ 8.64 µM)	0.78 µg/mL (≈ 2.15 µM)	
Nc1ncccc1-c1cc(Cc2cccc(OCc3ccccn3)c2)no1 [Example 60, 3-(3-(3-(Pyridin-2-ylmethoxy)-benzyl)-isoxazol-5-yl)-pyridin-2-ylamine]	0.2 µg/mL (≈ 0.558 µM)	1.56 µg/mL (≈ 4.35 µM)	
Cc1cccc(OCc2ccc(Cc3cc(-c4cccnc4N)on3)cc2)n1 [Example 3, 3-(3-(4-(6-Methyl-pyridin-2-yloxymethyl)-benzyl)-isoxazol-5-yl)-pyridin-2-ylamine]	0.1 µg/mL (≈ 0.269 µM)	0.78 µg/mL (≈ 2.09 µM)	

SMILES	MIC [1, 3]	MIC [2]	MIC [1]
Nc1ncccc1-c1cc(Cc2ccc(CSc3ccccc3)cc2)no1 [Example 206]	0.1 µg/mL (≈ 0.268 µM)	0.39 µg/mL (≈ 1.04 µM)	
Nc1ccc(-c2cc(Cc3ccc(OCC4CC4)cc3)no2)c(N)n1 [Example 21, 3-(3-(4-Cyclopropylmethoxy-benzyl)-isoxazol-5-yl)-pyridin-2,6-diamine]	1.56 µg/mL (≈ 4.64 µM)	0.78 µg/mL (≈ 2.32 µM)	
Nc1ccc(-c2cc(Cc3ccc(Cc4ccccc4)nc3)no2)c(N)n1 [Example 223, 3-(3-(6-Benzyl-pyridin-3-ylmethyl)-isoxazol-5-yl)-pyridin-2,6-diamine]	0.39 µg/mL (≈ 1.09 µM)	0.39 µg/mL (≈ 1.09 µM)	
Nc1ccc(-c2cc(Cc3ccc(CCc4ccco4)cc3)no2)c(N)n1 [Example 140, 3-(3-(4-(2-Furan-2-yl-ethyl)-benzyl)-isoxazol-5-yl)-pyridin-2,6-diamine]	0.2 µg/mL (≈ 0.555 µM)	0.78 µg/mL (≈ 2.16 µM)	
Cc1ccc(-c2cc(Cc3ccc(COc4ccccn4)cc3)no2)cn1 [Example 190, 2-Methyl-5-(3-(4-(pyridin-2-yloxymethyl)-benzyl)-isoxazol-5-yl)-pyridine]	0.78 µg/mL (≈ 2.18 µM)	0.78 µg/mL (≈ 2.18 µM)	
Cc1ccc(Oc2ccc(Cc3cc(-c4cccnc4N)on3)s2)cc1 [Example 48, 3-(3-(5-p-Tolyloxy-thiophen-2-ylmethyl)-isoxazol-5-yl)-pyridin-2-ylamine]	0.39 µg/mL (≈ 1.07 µM)	0.2 µg/mL (≈ 0.55 µM)	
c1ccc(COc2ccc(Cc3cc(-c4cccnc4)on3)cc2)cc1 [Example 201, 3-(3-(4-Benzyloxy-benzyl)-isoxazol-5-yl)-pyridine]	0.78 µg/mL (≈ 2.28 µM)	0.39 µg/mL (≈ 1.14 µM)	
Nc1ccc(-c2cc(Cc3ccc(COc4ccccc4)cc3)no2)c(N)n1 [Example 148, 3-(3-(4-Phenoxymethyl-benzyl)-isoxazol-5-yl)-pyridin-2,6-diamine]	0.2 µg/mL (≈ 0.537 µM)	0.2 µg/mL (≈ 0.537 µM)	
Nc1ncccc1-c1cc(Cc2ccc(OCc3ccc(Cl)cn3)cc2)no1 [Example 63, 3-(3-(4-(5-Chloro-pyridin-2-ylmethoxy)-benzyl)-isoxazol-5-yl)-pyridin-2-ylamine]	0.78 µg/mL (≈ 1.99 µM)	0.78 µg/mL (≈ 1.99 µM)	
Nc1ccc(-c2cc(Cc3ccc(Oc4cncc(Cl)n4)cc3)no2)c(N)n1 [Example 215, 3-(3-(4-(6-Chloro-pyrazin-2-yloxy)-benzyl)-isoxazol-5-yl)-pyridin-2,6-diamine]	0.39 µg/mL (≈ 0.988 µM)	0.78 µg/mL (≈ 1.98 µM)	
CCCCc1ccc(Cc2cc(-c3cccnc3N)on2)cc1 [Example 70, 3-(3-(4-Butyl-benzyl)-isoxazol-5-yl)-pyridin-2-ylamine]	1.56 µg/mL (≈ 5.07 µM)	0.39 µg/mL (≈ 1.27 µM)	
Nc1ncccc1-c1cc(Cc2ccc(SCc3ccccc3)cc2)no1 [Example 205, 3-(3-(4-Benzylsulfanyl-benzyl)-isoxazol-5-yl)-pyridin-2-ylamine]	0.39 µg/mL (≈ 1.04 µM)	0.78 µg/mL (≈ 2.09 µM)	
Nc1ncccc1-n1cc(Cc2ccc(OCc3ccccc3)cc2)cn1 [Example 39, 3-(4-(4-Benzyloxy-benzyl)-pyrazol-1-yl)-pyridin-2-ylamine]	3.13 µg/mL (≈ 8.78 µM)	3.13 µg/mL (≈ 8.78 µM)	
Nc1ncccc1-c1cc(Cc2ccc(OCc3ccc(F)cc3F)nc2)no1 [Example 90, 3-(3-(6-(2,4-Difluoro-benzyloxy)-pyridin-3-ylmethyl)-isoxazol-5-yl)-pyridin-2-ylamine]	1.56 µg/mL (≈ 3.96 µM)	0.39 µg/mL (≈ 0.989 µM)	
Nc1ncccc1-c1cc(Cc2ccc(Cc3ccc(F)cc3)o2)no1 [Example 208, 3-(3-(5-(4-Fluoro-benzyl)-furan-2-ylmethyl)-isoxazol-5-yl)-pyridin-2-ylamine]	6.25 µg/mL (≈ 17.9 µM)	0.78 µg/mL (≈ 2.23 µM)	
Nc1ccc(-c2cc(Cc3ccn(Cc4cccc(F)c4)c3)no2)c(N)n1 [Example 160, 3-(3-(1-(3-Fluoro-benzyl)-1H-pyrrol-3-ylmethyl)-isoxazol-5-yl)-pyridin-2,6-diamine]	0.39 µg/mL (≈ 1.07 µM)	0.78 µg/mL (≈ 2.15 µM)	
CC(C)=CCOc1ccc(Cc2cc(-c3ccc(N)nc3N)on2)cc1 [Example 218, 3-(3-(4-(3-Methyl-2-but-2-enyloxy)-benzyl)-isoxazol-5-yl)-pyridin-2,6-diamine]		0.1 µg/mL (≈ 0.285 µM)	0.2 µg/mL (≈ 0.571 µM)
Nc1nc(CO)ccc1-c1cc(Cc2ccc(OCc3ccccc3)cc2)no1 [Example 169]	0.39 µg/mL (≈ 1.01 µM)	0.39 µg/mL (≈ 1.01 µM)	
Cc1ccc(Cc2ccc(Cc3cc(-c4cccnc4N)on3)s2)cc1 [Example 92, 3-(3-(5-(4-Methyl-benzyl)-thiophen-2-ylmethyl)-isoxazol-5-yl)-pyridin-2-ylamine]	0.39 µg/mL (≈ 1.08 µM)	0.39 µg/mL (≈ 1.08 µM)	

Reference: patent US8158657B2, “Heterocycles substituted pyridine derivatives and antifungal agent containing thereof” (Eisai R&D Management Co., Ltd., priority 2005, dated 2012)
